From US20030104024A1, “Urea and nitrogen based compounds as feeding stimulants/aggregants and masking agents of unpalatable chemicals for subterranean termites” (priority 2000, published 2003)

Tests used:
C. formosanus = details: baits containing the termiticide; cited from earlier work
Formosan termite = experiment: choice test of the colorant (feeding deterrence); type: in vivo, Coptotermes formosanus; details: neutral red at 1000 ppm in bait matrix
Procedure: (§1) The basic formulation of the matrix was prepared the same day that the experiment was set up, as reported by Rojas et al. (U.S. patent application Ser. Nos. 09/294,499 and 09/625,940, ibid). The colorant used was neutral red (Product number 72210, Fluka Chemical Corp., Milwaukee, Wis.) at 1000 ppm.

[1] = tested on: Formosan subterranean termites; experiment: two choice feeding experiment: blank bait matrix vs. matrix with neutral red and urea; type: in vivo, Coptotermes formosanus; details: urea 0-1280 ppm added to matrix with 1,000 ppm neutral red; groups of 300 termites; 30 d; FIG. 1
Procedure: as §1
Under a laminar flow hood, the sterile cellulose was weighed using a Oahus portable plus scale (Fisher Scientific, Pittsburgh, Pa.) into a sterile 600 ml glass beaker. The colorant was weighed using a Mettler Toledo balance (PB303, Fisher Scientific, Pittsburgh, Pa.) and added to the pre-weighed cellulose. The cellulose with the colorant were homogenized using a sterile stainless steel spatula.
The sterile liquid mixture was measured into a 50 ml sterile screw cap conical tube (Product number 62.547.004 PP, Sarstedt, Inc., Newton, N.C.) and the urea was added at each of the following doses: 0, 10, 20, 40, 80, 160, 320, 640, and 1280 ppm; then it was added to the colored cellulose to a 7:3 ratio, (liquid-urea:colored-cellulose) and mixed to homogenize. […]
One treatment dish and one control dish were placed in the center of the top dish, taking care that the holes were facing each other and at least 1 cm apart. […] Matrix consumption was measured 30 d after by removing the left over bait matrix from the dishes and weighed it using a Sartorius balance (BP 211D, VWR Scientific, Atlanta, Ga.). […]

Structure (SMILES)	suppression of large colonies (C. formosanus)	further results
O=C(NC(=O)c1c(F)cccc1F)Nc1ccc(Cl)cc1 [diflubenzuron]	particularly effective	
O=C(NC(=O)c1c(F)cccc1F)Nc1cc(Cl)c(OC(F)(F)C(F)F)c(Cl)c1 [hexaflumuron]	particularly effective	
Cc1cc2nc3ccc(N(C)C)cc3nc2cc1N.Cl [neutral red]		feeding deterrence to the Formosan termite (Formosan termite): moderately deterrent
NC(N)=O [urea]		effect of urea on feeding deterrence induced by the colorant (consumption difference, control minus colored matrix) [1]: significantly affected the feeding deterrence induced by the colorant
